pEC50: −log10 of the molar value.
How the values were obtained:
Format in all cases: cell-based
Settings in all cases: for pEC50: CRE-Luc, HEK293T-RTP1S/RTP2, n = 2 experiments
[1] = target: T1, OR10A6 (Homo sapiens, UniProt Q8NH74); assay: CRE-Luciferase cAMP functional assay, HEK293T-RTP1S/RTP2 cells transfected with OR10A6
T1 construct: expressed in transfected cells; host or cells: HEK293T-RTP1S/RTP2
T1 sequence (Q8NH74 1-314): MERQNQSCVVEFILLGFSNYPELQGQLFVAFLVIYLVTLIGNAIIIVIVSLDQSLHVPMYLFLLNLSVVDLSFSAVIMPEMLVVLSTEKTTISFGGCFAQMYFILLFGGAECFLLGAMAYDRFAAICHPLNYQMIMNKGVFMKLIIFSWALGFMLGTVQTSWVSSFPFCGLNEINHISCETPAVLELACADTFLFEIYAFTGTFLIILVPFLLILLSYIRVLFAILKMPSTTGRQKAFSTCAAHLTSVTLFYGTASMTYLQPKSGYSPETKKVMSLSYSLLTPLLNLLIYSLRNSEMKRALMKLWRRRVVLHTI
Method: (§1) Measurement of intracellular levels of cAMP on HEK293T-RTP1S/RTP2 cells transfected with either a plasmid encoding the indicated odorant receptor (OR10A6, OR2AG2, or OR11H4), or an empty vector, was used to detect olfactory receptor activity (see Supplementary Materials Figure S2). A total of 18 compounds were screened. Dose-response curves were constructed for selected hits and the EC50 values were determined. These compounds were randomly selected based on their naturality, their capacity to bind ORs based on data from the literature, and on the likelihood of finding these molecules with a high percentage in flowers extracts.
(§2) Measurements of OR activation are based on the CRE-Luciferase gene reporter assay. HEK293T-RTP1S/RTP2 cells were used for all experiments and were co-transfected with vectors encoding individual ORs and the cAMP reporter gene CRE-Luc vector (pGL4.29 [luc2P/CRE/Hygro]) (Promega, Madison, WI, USA) using TransIT-LT1 Transfection reagent (Mirus Bio, Madison, WI, USA, #MIR2300). Luminescence emission was measured using either a Spectra Max M5 reader (Molecular Devices, Sunnyvale, CA, USA) or a FLUOstar Optima reader (BMG LABTECH GmbH, Offenburg, Germany). The hits, selected according to hit-level (HL) values, were then tested in dose-response experiments using 10 different concentrations from 10^−3.5 M to 10^−8 M. Rose extract was tested in the range of 3.2 × 10^−3% to 1 × 10^−7%. The concentration response curves were analyzed with Excel or GraphPad Prism 8.3.0 softwares (San Diego, CA, USA). The detailed protocols were described in the supplementary materials. […]
(§3) Measurements of OR activation are based on the CRE-Luciferase gene reporter assay.
(§4) HEK293T-RTP1S/RTP2 cells were used for all experiments. Cells were seeded on poly-D- […]
(§5) encoding individual ORs and the cAMP reporter gene CRE-Luc vector (pGL4.29 [luc2P/CRE/Hygro]) (Promega) using TransIT-LT1 Transfection reagent (Mirus Bio, #MIR2300). Sixteen hours post transfection, the culture medium was replaced by serum-free medium containing the test compounds. After four hours of incubation under carefully controlled conditions, cells were lysed by addition of 50 μL of Lysis buffer and processed for luminescence measurement. Luminescence emission was measured using either a Spectra Max M5 reader (Molecular Devices, Sunnyvale, CA) or a FLUOstar Optima reader (BMG LABTECH GmbH, Offenburg).
(§6) Various natural compounds were tested in a primary screening to identify possible pairs between compounds and skin -expressed ORs. Data from the prima ry screening were analyzed based on their hit-level (HL). This hit-level was calculated using the following formula: HL=

[2] = target: T2, OR2AG2 (Homo sapiens, UniProt A6NM03); assay: CRE-Luciferase cAMP functional assay, HEK293T-RTP1S/RTP2 cells transfected with OR2AG2
T2 construct: expressed in transfected cells; host or cells: HEK293T-RTP1S/RTP2
T2 sequence (A6NM03 1-316): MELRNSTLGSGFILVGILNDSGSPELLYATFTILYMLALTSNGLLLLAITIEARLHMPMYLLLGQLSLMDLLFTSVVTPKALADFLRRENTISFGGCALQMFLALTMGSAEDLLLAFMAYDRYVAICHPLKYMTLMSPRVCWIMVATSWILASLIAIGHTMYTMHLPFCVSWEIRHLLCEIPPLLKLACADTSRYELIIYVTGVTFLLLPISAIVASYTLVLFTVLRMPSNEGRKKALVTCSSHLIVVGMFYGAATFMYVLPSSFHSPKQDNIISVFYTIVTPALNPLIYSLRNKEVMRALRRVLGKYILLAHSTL
Method: as §1, §2, §3, §4, §5, §6

[3] = target: T3, OR11H4 (Homo sapiens, UniProt Q8NGC9); assay: CRE-Luciferase cAMP functional assay, HEK293T-RTP1S/RTP2 cells transfected with OR11H4
T3 construct: expressed in transfected cells; host or cells: HEK293T-RTP1S/RTP2
T3 sequence (Q8NGC9 1-324): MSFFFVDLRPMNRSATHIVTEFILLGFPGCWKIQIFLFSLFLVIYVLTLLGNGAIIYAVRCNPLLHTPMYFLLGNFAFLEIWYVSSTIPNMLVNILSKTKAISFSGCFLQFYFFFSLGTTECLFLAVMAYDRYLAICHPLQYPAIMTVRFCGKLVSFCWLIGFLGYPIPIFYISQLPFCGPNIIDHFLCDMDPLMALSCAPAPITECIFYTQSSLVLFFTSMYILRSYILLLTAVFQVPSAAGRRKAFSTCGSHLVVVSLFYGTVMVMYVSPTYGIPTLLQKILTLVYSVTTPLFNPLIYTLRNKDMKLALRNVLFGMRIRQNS
Method: as §1, §2, §3, §4, §5, §6

Row | pEC50 [1] | pEC50 [2] | pEC50 [3] | activation of OR10A6 (in words) [1] | activation of OR2AG2 (in words) [2] | activation of OR11H4 (in words) [3] | Structure (SMILES)
1 | 5.70 | 4.87 | < 3.50 |  |  |  | CC(C)=CCCC(C)CCO (stereo not shown) [Citronellol]
2 | 4.73 |  |  |  |  |  | CC1(C)CCCC2=C1CC(C=O)CC2 (stereo not shown) [Cyclemone A]
3 | 3.94 | 3.82 | 4.69 |  |  |  | OCCc1ccccc1 [Phenyl ethyl alcohol, Phenylethyl alcohol]
4 | 5.02 |  |  | specifically activated OR10A6 |  |  | CC(C=O)Cc1ccc(C(C)C)cc1 (stereo not shown) [Cyclamen aldehyde]
5 | 5.25 | 4.25 | < 3.50 |  |  |  | C=CC(C)(O)CCC=C(C)C (stereo not shown) [Linalool]
6 | 3.92 | < 3.50 | < 3.50 | specifically activated OR10A6 |  |  | CCCCCCCCCCCCCCCCCCC [Nonadecane]
7 | < 3.50 | 4.01 | < 3.50 |  | solely activate OR2AG2 |  | CC/C=C\CCO [Cis-3-Hexenol, Cis-3-hexen-1-ol]
8 | < 3.50 | < 3.50 | < 3.50 | failed to activate | failed to activate | does not activate | OCc1ccccc1 [Benzyl alcohol]
9 |  |  |  | failed to activate | failed to activate | failed to activate | C=C(C)[C@H](CO)CC=C(C)C [Lavandulol]
10 | 4.72 | 5.24 | < 3.50 |  |  |  | CC(=O)CCc1ccccc1 [Benzyl acetone]
11 | 5.22 | 4.29 | < 3.50 |  |  |  | CC(C)=CCC/C(C)=C\CO [Nerol]
12 | 5.48 | 4.74 | < 3.50 |  |  |  | CC(C)=CCC/C(C)=C/CO [Geraniol]
13 | 4.59 | < 3.50 | < 3.50 | specifically activated OR10A6 |  |  | CC(C)(O)CCCC1=CCC(C=O)CC1 (stereo not shown) [Lyral]

Row | Structure (SMILES) | pEC50 [1] | pEC50 [2] | pEC50 [3] | activation of OR10A6 (in words) [1] | activation of OR2AG2 (in words) [2] | activation of OR11H4 (in words) [3]
15 | OCCCc1ccccc1 [Phenyl propyl alcohol] | 4.31 | 3.99 | 4.28 |  |  | 

Source: article PMC7587601, “A Rose Extract Protects the Skin against Stress Mediators: A Potential Role of Olfactory Receptors” (Molecules, 2020)
